In US6469028B1, “Synthesis and use of retinoid compounds having negative hormone and/or anatgonist activities” (Allergan, Inc., priority 1995, dated 2002):
Blank lines part the entries; values can stand above or below the molecule they belong to.

Legend:
[1] = tested on: 1,25-dihydroxyvitamin D3-dependent gene expression; test: Example 14: 1,25-dihydroxyvitamin D3 transactivation, MTV-VDRE-Luc in HeLa cells; format: cell-based; conditions: 1,25-dihydroxyvitamin D3 alone
Description: Hela cells were transfected using the cationic liposome-mediated transfection procedure described by Feigner et al. in Proc. Natl. Acad. Sci. USA 84:7413 (1987). 5×10^4 cells were plated in 12-well multiwell plates and grown in DMEM supplemented with 10% FBS. Cells were cotransfected in serum-free medium using 2 μg/well of LIPOFECTAMINE reagent (Life Technologies, Inc.) with 0.7 μg of the reporter plasmid MTV-VDRE-Luc, containing two copies of the 1,25-dihydroxyvitamin D3 response element [NT] ID NO:4) from the mouse osteopontin gene (Ferrara et al. J. Biol. Chem. 269:2971 (1994)) ligated into the reporter plasmid ΔMTV-Luc (Heyman et al. in Cell 68:397 (1992)), and 0.3 μg of the plasmid pGEM3Z (Pharmacia, Inc.) as carrier DNA to bring the final concentration of DNA to 1.0 μg per well. After six hours of transfection, cells were fed with growth medium containing charcoal extracted FBS at a final concentration of 10%. […] Luciferase activity was measured as described above. This experimental system allowed a convenient method of monitoring and quantitating 1,25-dihydroxyvitamin D3-dependent gene expression.

[2] = tested on: TPA-induced AP-1 activity; test: Example 15: anti-AP-1 activity, Str-AP1-CAT in HeLa cells; format: cell-based; conditions: 1,25-dihydroxyvitamin D3 alone, 10^−12 to 10^−7 M
Description: HeLa cells were transfected with 1 μg of Str-AP1-CAT using LIPOFECTAMINE according to the method described by Nagpal et al. in J. Biol. Chem. 270:923 (1995). Transfected cells were treated with AGN 193109 alone (10^−9 to 10^−7 M), 1,25-dihydroxyvitamin D3 alone (10^−12 to 10^−7 M) or 1,25-dihydroxyvitamin D3 (10^−12 to 10^−7 M) in the presence of 10^−8 M AGN 193109.

[3] = Example 4: retinoid-induced hypertriglyceridemia (serum triglycerides); format: in vivo, rats; conditions: group C: AGN 191659 3.7 mg/kg oral alone
Description: Male Fischer rats (6-7 weeks old, n=5) were treated by intragastric intubation with corn oil (vehicle), AGN 191659, AGN 193109 or a combination of AGN 191659 and AGN 193109. AGN 191659 and AGN 193109 were given as fine suspensions in corn oil.
Serum was separated from blood by low speed centrifugation. Total serum triglycerides (triglycerides plus glycerol) were measured with a standard spectrophotometric endpoint assay available commercially as a kit and adapted to a 96-well plate format. Serum triglyceride levels are expressed as the mean±SD. Means were compared statistically by one-way analysis of variance followed by Dunnett's test if significant differences were found. Differences were considered significant at P<0.05.

RAR-γ-VP-16 = test: Example 12: assay for retinoid negative hormones, CV-1 cells; format: cell-based; conditions: 10^−9 to 10^−6 M, 18 hours, no agonist
RARγ = target: T1, RARγ (Homo sapiens, UniProt P13631); test: [3H]-ATRA displacement assay, baculovirus expressed receptor; format: binding; parameters: made in house; host or cells: baculovirus expression system; conditions: Table 12; relative affinity, competition of 3H-ATRA binding, Cheng-Prussof equation
T1 sequence (P13631 1-454): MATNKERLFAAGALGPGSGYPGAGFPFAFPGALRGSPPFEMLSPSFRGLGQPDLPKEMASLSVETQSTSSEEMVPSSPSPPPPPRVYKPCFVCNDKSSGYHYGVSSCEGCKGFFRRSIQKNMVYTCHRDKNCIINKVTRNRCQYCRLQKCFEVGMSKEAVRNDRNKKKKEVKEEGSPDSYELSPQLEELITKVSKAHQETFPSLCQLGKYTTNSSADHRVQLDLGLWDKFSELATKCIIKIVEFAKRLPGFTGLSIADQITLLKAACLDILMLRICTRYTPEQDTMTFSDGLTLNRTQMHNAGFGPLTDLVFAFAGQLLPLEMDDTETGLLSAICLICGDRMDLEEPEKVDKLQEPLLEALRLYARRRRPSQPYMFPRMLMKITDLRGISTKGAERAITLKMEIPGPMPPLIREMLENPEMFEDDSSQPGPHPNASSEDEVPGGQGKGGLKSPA

hairless mice = test: Example 1: skin irritation by topical agonist, topical antagonist; format: in vivo
Description: More particularly skin irritation was measured on a semiquantitative scale by the daily subjective evaluation of skin flaking and abrasions. A single number, the topical irritation score, summarizes the skin irritation induced in an animal during the course of an experiment. The topical irritation score is calculated as follows. The topical irritation score is the algebraic sum of a composite flaking score and a composite abrasion score. The composite scores range from 0-9 and 0-8 for flaking and abrasions, respectively, and take into account the maximum severity, the time of onset, and the average severity of the flaking and abrasions observed.
The severity of flaking is scored on a 5-point scale and the severity of abrasions is scored on a 4-point scale, with higher scores reflecting greater severity. The maximum severity component of the composite scores would be the highest daily severity score assigned to a given animal during the course of observation.
For the time of onset component of the composite score, a score ranging from 0 to 4 is assigned as follows:
The average severity component of the composite score is the sum of the daily flaking or abrasion scores divided by the number of observation days.
To calculate the composite flaking and abrasion scores, the average severity and time of onset scores are summed and divided by 2. The result is added to the maximal severity score. The composite flaking and abrasion scores are then summed to give the overall topical irritation score. Each animal receives a topical irritation score, and the values are expressed as the mean±SD of the individual scores of a group of animals. Values are rounded to the nearest integer.
Female hairless mice [Crl:SKH1-hrBR] […] Treatments are applied to the dorsal skin in a total volume of 4 ml/kg (˜0.1 ml). Mice were observed daily and scored for flaking and abrasions up to and including 3 days after the last treatment, i.e., day 8.

SMILES: C=C1/C(=C\C=C2/CCC[C@]3(C)[C@@H]([C@H](C)CCCC(C)(C)O)CC[C@@H]23)C[C@@H](O)C[C@@H]1O [1,25-dihydroxyvitamin D3, reference compound]
concentration required to produce a luciferase expression of approximately 2,000 rlu [1]: 10^−8 M
repression of TPA-stimulated activity [2]: repressed TPA-stimulated activity only in the 10^−8 and 10^−7 M concentration range

SMILES: C/C(=C\c1ccc(C(=O)O)s1)c1cc2c(cc1C)C(C)(C)CCC2(C)C [AGN 191659, 5-[(E)-2-(5,6,7,8-tetrahydro-3,5,5,8,8-pentamethylnaphthalen-2-yl)propen-1-yl]-2-thiophencarboxylic acid, reference compound]
Serum Triglycerides [3]: 122.5 ± 27.6 mg/dL

SMILES: CC1(C)CC=C(c2ccccc2)c2cc(C#Cc3ccc(C(=O)O)cc3)ccc21 [Compound 60a, 4-[(5,6-dihydro-5,5-dimethyl-8-phenyl-2-naphthalenyl)ethynyl]benzoic acid]
Topical Irritation Score (hairless mice; group C: AGN 192869 0.06 mg/kg/d + AGN 191183 0.025 mg/kg/d topical, molar ratio 2:1): 5 ± 2
Topical Irritation Score (hairless mice; group D: AGN 192869 0.30 mg/kg/d + AGN 191183 0.025 mg/kg/d topical, molar ratio 10:1): 2 ± 1
Topical Irritation Score (hairless mice; group E: AGN 192869 1.5 mg/kg/d + AGN 191183 0.025 mg/kg/d topical, molar ratio 50:1): 1 ± 0
Topical Irritation Score (hairless mice; group F: AGN 192869 1.5 mg/kg/d topical alone): 0 ± 0

Continued, in another order:

Kd (RARγ): 52 nM
SMILES: CC1(C)CC=C(c2cccs2)c2cc(C#Cc3ccc(C(=O)O)cc3)ccc21 [Compound 34a, 4-[(5,6-dihydro-5,5-dimethyl-8-(2-thienyl)-2-naphthalenyl)ethynyl]benzoic acid]
RAR-γ-VP-16 constitutive activity (negative hormone activity) (RAR-γ-VP-16): did not repress RAR-γ-VP-16 activity

Kd (RARγ): 30 nM
SMILES: Cc1ccc(C2=CCSc3ccc(C#Cc4ccc(C(=O)O)cc4)cc32)cc1 [Compound 50, 4-[2-(6-(4-(4-methylphenyl)-(2H)-1-benzothiopyranyl))ethynyl]-benzoic acid]
RAR-γ-VP-16 constitutive activity (negative hormone activity) (RAR-γ-VP-16): dose dependent repression of RAR-γ-VP-16 constitutive activity
